Assay results as given in the NIST ThermoML archive (doi:10.1016/j.jct.2018.10.027).

Experiment: molar heat capacity at constant pressure; mn = molality of the nth substance listed, in mol/kg
Settings: 100 kPa, Liquid, Large sample (1 g) DSC

[Cl-].[Na+] [sodium chloride] + O
molar heat capacity at constant pressure [J/K/mol]
Settings | m1 = 0.2038 | m1 = 0.3971 | m1 = 1.032
278.15 K | 75.59 | 75.32 | 74.79
283.15 K | 75.42 | 75.21 | 74.42
288.15 K | 75.27 | 75.07 | 74.37
293.15 K | 75.25 | 74.95 | 74.28
298.15 K | 75.23 | 74.91 | 74.26
303.15 K | 75.22 | 74.9 | 74.22
308.15 K | 75.2 | 74.87 | 74.21
313.15 K | 75.18 | 74.87 | 74.2
318.15 K | 75.19 | 74.88 | 74.21
323.15 K | 75.2 | 74.96 | 74.26
328.15 K | 75.21 | 74.99 | 74.27
333.15 K | 75.25 | 75.03 | 74.28
338.15 K | 75.27 | 75.11 | 74.32
343.15 K | 75.38 | 75.21 | 74.34
348.15 K | 75.47 | 75.26 | 74.45
